The conditions of data set [1]: in water; cited from earlier work.
The test system of data set [2] is HIV BaL. It counts as cell-based, HIV-1. As to conditions: dried. As to the method:
Inhibition of HIV infection is studied by utilizing an infection assay in which GHOST CD4 CCR5 cells are infected with HIV BaL, an R5 tropic isolate (Ruff, M R et al., 2001). Infection is detected via viral induction of the hGFP gene (green fluorescent protein) 48 hrs post-infection. Trays are measured in a plate reader to determine fluorescence intensity. All infections are performed by adding fresh culture medium containing approximately 1,000 infectious units of HIV-1 per well (96-well plates). […]
The peptide was dissolved in the indicated concentration of TFE in water and then shaken or agitated for 24 hrs at 37° C. The peptide was subsequently dried down, and the TFE/water mixture removed under vacuum. […] Although TFE is removed, residual traces of TFE within acceptable range for human consumption may remain.
Inhibition of HIV infection was studied by utilizing an infection assay using GHOST CD4 as previously described by Ruff, M R et al., 2001. CCR5 cells are infected with HIV BaL, an R5 tropic isolate. Infection is detected via viral induction of the hGFP gene (green fluorescent protein) about 48 hours post-infection. Trays were measured in a plate reader to determine fluorescence intensity. All infections were performed by adding fresh culture medium containing approximately 1,000 infectious units of HIV-1 per well (96-well plates).
Again, the peptide was then evaporated or dried down, and resuspended in an aqueous solution, e.g., water for about three days, and tested for anti-HIV activity, as above.

Data set [3] is described as follows: DAPTA fibril formation in solution (EM, FTIR, CD, dye binding). Type of data set: physicochemical. The note with it: for Time to form aggregates: distilled water, 10 mg/ml. As to the method: Preparation of DAPTA solutions. DAPTA was dissolved in water, and solutions maintained at various temperatures and times. To prepare fibrils, DAPTA was prepared at 10 mgs/mL in water and stored overnight at 4° C.
Determining fibril formation.
Congo red was dissolved in PBS (5 mM potassium phosphate, 150 mM NaCl, pH 7.4) to a concentration of 7 ug/mL. The solution was chilled to 4° C., and DAPTA added as a 10 mg/mL stock solution in water, to yield final peptide concentration in the dye solution of 0.48 mg/mL. Peptide solution immediately after dissolution of powder was compared with an aged stock solution containing aggregated peptides. Spectra were collected between 400-700 nm, at 4° C.
Fibril formation of peptide T or analog thereof can also be determined using Circular Dichroism (CD) spectroscopy. Ten mg/mL solutions in water of either freshly prepared peptide or containing fibrillar aggregates was added to distilled water at 4° C. to a concentration of 50 ug/mL. CD spectra were collected on a Jasco model J-810 spectrometer using a 0.1 cm path length quartz cuvette, between 190-250 nm, with a […] interval, and a response time of 2 sec.
Still another method of determining fibril formation of peptide T or analog thereof is performed using Fourier Transform Infrared (FTIR) Spectroscopy. DAPTA was dissolved in deuterated water, to a concentration of 10 mg/ml and incubated under temp and time conditions that promote fibril formation. 25 ul samples were then placed in a pre-cooled transmission cell with NaCl windows separated by a 6 um spacer. FTIR spectra were collected on a BioRad FTS-175C Fourier transform spectrometer in transmission mode using a DTGS detector. 2506 interferograms were recorded with a 2 cm-1 resolution. Water vapor was subtracted and the spectra baselines corrected.

For a further data set, the system named is HIV. Description: Inhibition of HIV infectivity in vitro by stored DAPTA solutions. Type of data set: cell-based. The method, then: Aggregation is discovered to be associated with a loss of biological activity in vitro. Typically, the recommended protocol is to have DAPTA stored at 0.1 mM solutions in water at 4° C.
Aggregation is reduced in the presence of trifluoroethanol (TFE). TFE was selected because of its property of reducing certain types of protein-protein interactions. DAPTA was dissolved in either distilled water, or solutions containing between 60% and 100% TFE. Aggregation was evaluated by assaying inhibition of HIV infectivity, in vitro. […] Also, TFE is capable of disassociating preformed aggregates of DAPTA. Aggregates of DAPTA, formed in distilled water were disrupted by addition of TFE to 80%, as measured by EM.

The test system of data set [4] is HIV BaL. It counts as cell-based, HIV-1. As to conditions: dried, in water about three days.
The next data set deals with envelop (gp120) binding. As to conditions: 1987 report; cited from earlier work.
The subject of another data set is people with AIDS. The note with it: cited from earlier work; for Patients with improved neuro-psychological performance: early AIDS dementia (Kosten et al., 1997).
Another data set deals with nasal mucosa. As to conditions: cited from earlier work.
For a further data set, the system named is isolated nasal cilia. The note with it: cited from earlier work.
Data set [5] can be described thus: Light scatter of beta interferons, Pramlintide and calcitonin with and without dodecyl maltoside. As to conditions: 37° C., 150 RPM, 38 day test period.

These results are taken from patent US8846044B2, “Stabilizing alkylglycoside compositions and methods thereof” (Aegis Therapeutics, LLC, priority 2006, dated 2014).

Like-named read-outs stand apart in the source and are kept apart here.

As to `CCCCCCCCCCCCCCO[C@@H]1O[C@H](CO)[C@@H](O[C@@H]2O[C@@H](CO)[C@H](O)[C@@H](O)[C@@H]2O)[C@H](O)[C@H]1O` (stereo in doubt) [Tetradecyl maltoside], the CMC in data set [1] is listed as 0.01 mM.
For the molecule `CCCCCCCCCCCCCO[C@@H]1O[C@H](CO)[C@@H](OC2OC(CO)C(O)C(O)C2O)[C@H](O)[C@H]1O` (stereo in doubt) [Tridecyl maltoside], the CMC in data set [1] is recorded as 0.03 mM.
On to `CCCCCCCCCCO[C@@H]1O[C@H](CO)[C@@H](O[C@H]2O[C@H](CO)[C@@H](O)[C@H](O)[C@H]2O)[C@H](O)[C@H]1O` [Decyl maltoside], for which, in data set [1], the CMC is listed as 1.8 mM.
With `CCCCCCCCCCCCO[C@@H]1O[C@H](CO)[C@@H](O[C@H]2O[C@H](CO)[C@@H](O)[C@H](O)[C@H]2O)[C@H](O)[C@H]1O` [Dodecyl β-D-maltoside], the CMC in data set [1] is given as 0.17 mM.
Take `CCCCCCCCO[C@@H]1O[C@H](CO)[C@@H](O[C@H]2O[C@H](CO)[C@@H](O)[C@H](O)[C@H]2O)[C@H](O)[C@H]1O` [Octyl maltoside]: the CMC in [1] was 19.5 mM.
On to D-ala^1-Peptide T-amide [DAPTA], for which the “Percent Reduction in HIV Infection” value was 0 ± 2% with HIV BaL [2] (0.1 nM DAPTA, TFE Concentration 0 %, shaken 24 hrs at 37° C., stored in water about 3 days); 0 ± 3% in the data set with HIV BaL [2] (0.1 nM DAPTA, TFE Concentration 20 %, shaken 24 hrs at 37° C., stored in water about 3 days); 0 ± 2% in the data set with HIV BaL [2] (0.1 nM DAPTA, TFE Concentration 40 %, shaken 24 hrs at 37° C., stored in water about 3 days); 20 ± 4% with HIV BaL [2] (0.1 nM DAPTA, TFE Concentration 60 %, shaken 24 hrs at 37° C., stored in water about 3 days); 100 ± 5% in the data set with HIV BaL [2] (0.1 nM DAPTA, TFE Concentration 80 %, shaken 24 hrs at 37° C., stored in water about 3 days); 98 ± 3% in the data set on HIV BaL [2] (0.1 nM DAPTA, TFE Concentration 100 %, shaken 24 hrs at 37° C., stored in water about 3 days). Besides, the “Percent Reduction in HIV Infection” value in the data set with HIV BaL [2] (80% TFE, shaken about 24 hours at 37 ° C., in water about three days) came out at 100 ± 5%; in the data set with HIV BaL [2] (about 80% TFE/water, shaken 24 hrs at 37 degrees, in water about three days), 100 ± 3%; in the data set on HIV BaL [4] (80% TFE, shaken about 24 hours at Room Temp.), 70 ± 6%; with HIV BaL [4] (about 80% TFE/water, shaken 12 hrs at 37 degrees) it was 70 ± 4%; in the data set with HIV BaL [4] (about 80% TFE/water, shaken 48 hrs at 37 degrees) it was 100 ± 3%. The “Dissociation of aggregates on warming” value in [3] (5 mg/mL in 0.45% NaCl, warmed to 37° C. for about 17-24 hours with shaking) is given as “reversibly dissociate”. The “Time to observable fibril formation” value in [3] (0.9% saline (10 mg/mL), room or ambient temperature) is at most 48 h. For the same molecule, in data set [3] (0.9% saline (10 mg/mL), stored at 4° C.), the “Time to observable fibrillization” value is reported as “less than 1 hour”. Moreover, in [3] (aggregates formed in distilled water, TFE added to 80%), the “Effect of TFE on preformed aggregates, by EM” value is reported as “disrupted”. In addition, the “Time to form aggregates” value in [3] (4 deg. C.) is at most 2 h; in [3] (room temperature), 24 to 170 h. The “Time to substantial loss of activity (HIV uptake inhibition in vitro)” value in the data set on HIV (0.1 mM solution in water at 4° C.) is given as “about 6 weeks”. Also, the “Activity after storage (inhibition of HIV infectivity in vitro)” value in the data set with HIV (stored in TFE between 60% and 100% versus water) is listed as “retained more activity”. For the same molecule, the “Concentration that blocks envelop (gp120) binding and inhibits viral infectivity” value in the data set on envelop (gp120) binding is 10 pM. The “Neuropsychological performance versus placebo” value in the data set with people with AIDS (2 mg three times daily intranasally, at least four months (Heseltine et al., 1998)) was “no difference in neuropsychological performance”. Besides, the “Patients with improved neuro-psychological performance” value in the data set on people with AIDS (high dose (15 mg daily)) is 4/5; with people with AIDS (low dose (1.5 mg daily)), 1/4. In addition, the “Persistently infected monocyte reservoir” value in the data set on people with AIDS (human, in vivo) is recorded as “greatly reduced or flushed to undetectable levels in all patients”. In addition, in the data set with people with AIDS (nine individuals, subcutaneously 10 mg daily (MacFadden and Doob 1991)), the “Lower limb pain in HIV-related peripheral neuropathy” value was “complete or subjectively significant resolution of lower limb pain”. In addition, in the data set with people with AIDS (nine individuals, subcutaneously (MacFadden and Doob 1991)), the Adverse drug effects entry is on record as “No adverse drug effects were noted”. Further, the “Cognitive and neuromotor function versus controls” value with people with AIDS (phase I, 0.1 to 3.2 mg/kg/day intravenously, moderate impairment (Bridge et al. 1989)) was “Cognitive and neuromotor function improved”. The “Painful peripheral neuropathy versus placebo” value in the data set on people with AIDS (phase II double-blind, 6 mg/day for 12 weeks (Simpson et al. 1996)) was “no statistically significant differences”.
Regarding Sucrose dodecanoate, in data set [1], the CMC is reported as 0.3 mM.
Consider benzalkonium chloride [BAC], for which the “Saccharine transport time and proinflammatory indicators in vivo” value with nasal mucosa is on record as “did not alter saccharine transport time”. In the data set on nasal mucosa (in vivo), the “Damage to the nasal mucosa” value was “no significant damage to the nasal mucosa”, the Nasal irritation entry is given as “no discernible negative effects” and the Nasal mucosal function result is recorded as “no detectable effect on the nasal mucosal function”. Moreover, in the data set with isolated nasal cilia, the “Effect on isolated nasal cilia in vitro” value is reported as “ciliotoxic”.

B1: Betaseron®: beta interferon 1b, Lot number YA0549A (protein, UniProt P01574 22-187, looked up, variant C17S)
Interferon beta: MSYNLLGFLQRSSNFQSQKLLWQLNGRLEYCLKDRMNFDIPEEIKQLQQFQKEDAALTIYEMLQNIFAIFRQDSSSTGWNETIVENLLANVYHQINHLKTVLEEKLEKEDFTRGKLMSSLHLKRYYGRILHYLKAKEYSHCAWTIVRVEILRNFYFINRLTGYLRN
modifications: interferon beta-1b, lacks N-terminal Met
Consider B1, for which the “Aggregation as increase in light scatter” value in data set [5] was “much larger increase in light scatter”. Also, in data set [5] (light scatter at 500 nm), the “Stabilization by 0.2% Dodecyl maltoside, in words” value is “greatest stabilization effect”.
